Reference: ChEMBL document CHEMBL5325421, “Discovery of novel sulfonamide chromone-oxime derivatives as potent indoleamine 2,3-dioxygenase 1 inhibitors” (Eur J Med Chem, 2023)

Legend:
SW480 = assay: cells; settings: Homo sapiens, SW480, 48 h
[1] = molecular target: T1, Indoleamine 2,3-dioxygenase 1 (Homo sapiens, UniProt P14902); assay: Inhibition of IDO1 in IFN-gamma treated human HeLa cells incubated for 48 hrs by absorbance based analysis; format: cell-based
Target sequence in this assay (P14902 whole entry): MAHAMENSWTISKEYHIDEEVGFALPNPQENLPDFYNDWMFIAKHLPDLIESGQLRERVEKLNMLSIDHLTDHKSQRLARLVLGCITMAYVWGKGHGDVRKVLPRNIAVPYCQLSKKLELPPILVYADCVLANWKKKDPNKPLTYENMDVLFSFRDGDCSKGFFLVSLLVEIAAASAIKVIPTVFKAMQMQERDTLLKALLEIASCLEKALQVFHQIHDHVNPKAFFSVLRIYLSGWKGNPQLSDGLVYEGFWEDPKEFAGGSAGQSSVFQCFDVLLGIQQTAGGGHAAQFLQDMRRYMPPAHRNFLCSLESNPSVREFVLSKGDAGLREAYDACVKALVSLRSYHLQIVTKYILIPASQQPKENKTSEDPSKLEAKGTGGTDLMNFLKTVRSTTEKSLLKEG

HCT-116 = assay: cells; settings: Homo sapiens, HCT-116, 48 h
HeLa = assay: cells; settings: Homo sapiens, 48 h
A549 = assay: cells; settings: Homo sapiens, A549, 48 h
[2] = molecular target: T1, Indoleamine 2,3-dioxygenase 1; assay: Inhibition of human recombinant IDO1 measured after 60 mins by fluorescence based analysis
Target sequence in this assay (P14902 whole entry): as above

[3] = Toxicity in BALB/c mouse assessed as change in body weight at 100 mg/kg measured upto 22 days; format: organism-based; settings: in vivo, 528 h, time < 22 day
CT26 [4] = assay: Antitumor activity against mouse CT26 cells xenografted in BALB/c mouse model assessed as reduction in tumor weight at 100 mg/kg measured every 3 days for 21 days by caliper method relative to control; format: functional; design: scale not given: the % may be the effect or the level left; settings: time 21 day
CT26 [5] = assay: Antitumor activity against mouse CT26 cells xenografted in BALB/c mouse model assessed as relative tumor volume growth at 100 mg/kg measured every 3 days for 21 days by caliper method relative to control; format: functional; settings: time 21 day
[6] = Toxicity in BALB/c mouse assessed as pathological changes in spleen at 50 to 100 mg/kg; format: organism-based; settings: in vivo, dose 50-100 mg/kg
CT26 [7] = assay: Antitumor activity against mouse CT26 cells xenografted in BALB/c mouse model assessed as reduction in tumor weight at 50 mg/kg measured every 3 days for 21 days by caliper method relative to control; format: functional; design: scale not given: the % may be the effect or the level left; settings: time 21 day
CT26 [8] = assay: Antitumor activity against mouse CT26 cells xenografted in BALB/c mouse model assessed as relative tumor volume growth at 50 mg/kg measured every 3 days for 21 days by caliper method relative to control; format: functional; settings: time 21 day
[9] = Toxicity in BALB/c mouse assessed as pathological changes in lungs at 50 to 100 mg/kg; format: organism-based; settings: in vivo, dose 50-100 mg/kg
[10] = Toxicity in BALB/c mouse assessed as pathological changes in heart at 50 to 100 mg/kg; format: organism-based; settings: in vivo, dose 50-100 mg/kg
[11] = molecular target: T1, Indoleamine 2,3-dioxygenase 1; assay: Binding affinity to human recombinant IDO1 heme iron assessed as shift in soret peak at 2 mM by UV-visible spectroscopic analysis (reference value: […])
Target sequence in this assay (P14902 whole entry, looked up): as the sequence (P14902 whole entry) above

[12] = molecular target: T1, Indoleamine 2,3-dioxygenase 1; assay: Binding affinity to human recombinant IDO1 assessed as dissociation rate constant measured for 60 sec by SPR assay
Target sequence in this assay (P14902 whole entry): as above

[13] = Toxicity in BALB/c mouse assessed as pathological changes in liver at 50 to 100 mg/kg; format: organism-based; settings: in vivo, dose 50-100 mg/kg
[14] = Toxicity in BALB/c mouse assessed as change in body weight at 50 to 100 mg/kg measured upto 22 days; format: organism-based; settings: in vivo, 528 h, dose 50-100 mg/kg, time < 22 day
[15] = molecular target: T1, Indoleamine 2,3-dioxygenase 1; assay: Binding affinity to human recombinant IDO1 assessed as dissociation constant measured for 60 sec by SPR assay; settings: dose 0.78-25 µM
Target sequence in this assay (P14902 whole entry, looked up): as the sequence (P14902 whole entry) above

[16] = Toxicity in BALB/c mouse assessed as pathological changes in kidney at 50 to 100 mg/kg; format: organism-based; settings: in vivo, dose 50-100 mg/kg

| IC50 (SW480) [µM] | IC50 [1] [µM] | IC50 (HCT-116) [µM] | IC50 (HeLa) [µM] | IC50 (A549) [µM] | IC50 [2] [µM] | SMILES | other results |
| --- | --- | --- | --- | --- | --- | --- | --- |
| > 50 | 4.46 | 19.4 | > 50 | > 50 | 1.95 | COc1ccc2/c(=N/O)cc(C(=O)N3CCN(S(=O)(=O)c4cccc([N+](=O)[O-])c4)CC3)oc2c1 | – |
| 17.6 | > 10 | 1.48 | > 50 | 41.4 | 9.45 | COc1ccc(S(=O)(=O)N2CCN(C(=O)c3c/c(=N\O)c4ccc(C)cc4o3)CC2)cc1 | – |
| > 50 | > 10 | > 50 | 38 | > 50 | 8.85 | COc1ccc2/c(=N/O)cc(C(=O)N3CCN(S(=O)(=O)c4ccccc4C(F)(F)F)CC3)oc2c1 | – |
| 31.2 | 9.29 | 34.8 | > 50 | > 50 | 9.18 | Cc1ccc2/c(=N/O)cc(C(=O)N3CCN(S(=O)(=O)c4ccc(F)cc4)CC3)oc2c1 | – |
| > 50 | 4.13 | > 50 | 42.8 | > 50 | 2.38 | COc1ccc2/c(=N/O)cc(C(=O)N3CCN(S(=O)(=O)c4cccc(F)c4)CC3)oc2c1 | – |
| 12.4 | 7.23 | > 50 | > 50 | > 50 | 5.72 | COc1ccc2/c(=N/O)cc(C(=O)N3CCN(S(=O)(=O)c4ccc(F)cc4)CC3)oc2c1 | – |
| 33.1 | > 10 | 31.1 | 20.1 | 36.9 | > 10 | COc1ccc2/c(=N/O)cc(C(=O)N3CCN(S(=O)(=O)c4ccc(C)cc4)CC3)oc2c1 | – |
| > 50 | 5.66 | > 50 | 30.1 | > 50 | 3.58 | COc1ccc2/c(=N/O)cc(C(=O)N3CCN(S(=O)(=O)c4ccc([N+](=O)[O-])cc4)CC3)oc2c1 | – |
| 27.6 | 5.75 | 4.18 | > 50 | > 50 | 5.59 | Cc1ccc2/c(=N/O)cc(C(=O)N3CCN(S(=O)(=O)c4ccc(F)c(F)c4)CC3)oc2c1 | – |
| > 50 | – | > 50 | > 50 | > 50 | – | NS(=O)(=O)NCCNc1nonc1/C(=N/O)Nc1ccc(F)c(Br)c1 [EPACADOSTAT] | – |
| > 50 | > 10 | 15.2 | > 50 | > 50 | > 10 | Cc1ccc2/c(=N/O)cc(C(=O)N3CCN(S(=O)(=O)c4ccc(Cl)cc4)CC3)oc2c1 | – |
| > 50 | > 10 | 23.5 | > 50 | > 50 | > 10 | COc1ccc2/c(=N/O)cc(C(=O)N3CCN(S(=O)(=O)c4ccccc4C)CC3)oc2c1 | – |
| > 50 | 9.81 | > 50 | 44.8 | > 50 | 6.14 | COc1ccc2/c(=N/O)cc(C(=O)N3CCN(S(=O)(=O)c4cccc(Br)c4)CC3)oc2c1 | – |
| 11.6 | 7.78 | 42 | > 50 | > 50 | 7.07 | COc1ccc2/c(=N/O)cc(C(=O)N3CCN(S(=O)(=O)c4ccc(Cl)cc4)CC3)oc2c1 | – |
| > 50 | 7.61 | > 50 | > 50 | > 50 | 3.73 | COc1ccc2/c(=N/O)cc(C(=O)N3CCN(S(=O)(=O)c4ccc(Cl)c(Cl)c4)CC3)oc2c1 | – |
| – | – | – | – | – | – | Nc1nonc1C(=NO)Nc1ccc(F)c(Cl)c1 | Activity [3]: Non-Toxic; Activity (CT26 [4]): 70.9%; Activity (CT26 [5]): 26.05% |
| – | – | – | – | – | – | Cn1cc(C[C@H](N)C(=O)O)c2ccccc21 [(L)-1-METHYLTRYPTOPHAN] | Activity [3]: Non-Toxic; Activity (CT26 [4]): 45.6% |
| > 50 | 7.8 | > 50 | > 50 | > 50 | 6.23 | COc1ccc(S(=O)(=O)N2CCN(C(=O)c3c/c(=N\O)c4ccc(C)cc4o3)CC2)cc1OC | – |
| > 50 | 1.68 | 47.8 | 34 | > 50 | 0.92 | COc1ccc2/c(=N/O)cc(C(=O)N3CCN(S(=O)(=O)c4ccc(OC)c(OC)c4)CC3)oc2c1 | – |
| > 50 | > 10 | 28.3 | > 50 | 46.1 | > 10 | Cc1ccc2/c(=N/O)cc(C(=O)N3CCN(S(=O)(=O)c4ccc(Br)cc4)CC3)oc2c1 | – |
| 39.2 | 8.52 | 29.5 | 36.8 | > 50 | 6.35 | COc1ccc(S(=O)(=O)N2CCN(C(=O)c3c/c(=N\O)c4ccc(OC)cc4o3)CC2)cc1 | – |
| 17.1 | 8.84 | 6.44 | 29.4 | > 50 | 7.52 | Cc1ccc2/c(=N/O)cc(C(=O)N3CCN(S(=O)(=O)c4cccc([N+](=O)[O-])c4)CC3)oc2c1 | – |
| 28.6 | 1.04 | > 50 | > 50 | > 50 | 0.64 | COc1ccc2/c(=N/O)cc(C(=O)N3CCN(S(=O)(=O)c4ccc(F)c(F)c4)CC3)oc2c1 | Activity [6]: Non-Toxic; Activity (CT26 [7]): 36.2%; Activity (CT26 [8]): 63.52%; Activity [9]: Non-Toxic; Activity [10]: Non-Toxic; Activity (CT26 [4]): 60.4%; Activity [11]: 421 nm; koff [12]: 0.11 s⁻¹; Activity [13]: Non-Toxic; Activity [14]: Non-Toxic; Activity (CT26 [5]): 38.01%; Activity [15]: Dose-Dependent Effect; Activity [16]: Non-Toxic |
| > 50 | > 10 | 18.5 | > 50 | > 50 | 9.42 | COc1ccc2/c(=N/O)cc(C(=O)N3CCN(S(=O)(=O)c4ccc(Br)cc4)CC3)oc2c1 | – |
| > 50 | 6.37 | > 50 | > 50 | > 50 | 2.69 | COc1ccc2/c(=N/O)cc(C(=O)N3CCN(S(=O)(=O)c4ccc(C(F)(F)F)cc4)CC3)oc2c1 | – |
| > 50 | > 10 | > 50 | > 50 | > 50 | > 10 | COc1ccc2/c(=N/O)cc(C(=O)N3CCN(S(=O)(=O)c4ccccc4Cl)CC3)oc2c1 | – |
